One data set is described as follows: Lipophilicity, log D at pH 7.4. In kind it is physicochemical. The note with it: buffer.
The compound `CC(C)(O)Cn1c(=O)n(C(=O)N[C@H](C(N)=O)C(C)(C)C)c2ccccc21` returned a logD of 2.2. As for `CC(C)(C)[C@H](NC(=O)n1c(=O)n(CC2CCCO2)c2ccccc21)C(N)=O` (stereo not given in full), the logD is 2.1. Compound `CN(C)CCn1c(=O)n(C(=O)N[C@H](C(N)=O)C(C)(C)C)c2ccccc21` had a logD of 1.5. For `CC(C)(C)[C@H](NC(=O)n1c(=O)n(CC2(O)CCOCC2)c2ccccc21)C(N)=O`, the logD was determined as 1.6.

Compound `CC(C)(O)CCn1c(=O)n(C(=O)N[C@H](C(N)=O)C(C)(C)C)c2ccccc21` returned a pH-dependent lipophilicity (logD) of 2.2. As for `CC(C)(C)[C@H](NC(=O)n1c(=O)n(CCN2CCCC2)c2ccccc21)C(N)=O`, the logD was 1.5.

`CC(C)(C)[C@H](NC(=O)n1c(=O)n(CCC2(O)CCOCC2)c2ccccc21)C(N)=O`: the logD came to 1.9. On the same count and under the same terms, for `CC(C)(C)[C@H](NC(=O)n1c(=O)n(CCC2CCOCC2)c2ccccc21)C(N)=O` the value was 2.4; for `CC(C)CCn1c(=O)n(C(=O)N[C@H](C(N)=O)C(C)(C)C)c2ccccc21`, 3.4.

The next data set can be described thus: Bioavailability in rat at 3 mg/kg, po. In kind it is ADME, organism-based. The note with it: in vivo.
Regarding `CC(C)(O)CCn1c(=O)n(C(=O)N[C@H](C(N)=O)C(C)(C)C)c2ccccc21`, the bioavailability was 33%.

The values above are taken from ChEMBL document CHEMBL1150312, “The SAR studies of novel CB2 selective agonists, benzimidazolone derivatives” (Bioorg Med Chem Lett, 2008).
